Several values for one entry are separate records, joined by “and”; a condition that tells them apart may be missing. Identical values can stand only once. Like-named read-outs stand apart in the source and are kept apart here.
How the values were obtained:
CYP1B1 F134L = target: T1, CYP1B1 F134L (Homo sapiens, UniProt Q16678, F134L); experiment: In cell CYP1B1 activity assay, F134L variant; details: for logSI F134L: log of the ratio of IC50 values mutant vs WT (Fig. 3c)
T1 sequence (Q16678 1-543 F134L): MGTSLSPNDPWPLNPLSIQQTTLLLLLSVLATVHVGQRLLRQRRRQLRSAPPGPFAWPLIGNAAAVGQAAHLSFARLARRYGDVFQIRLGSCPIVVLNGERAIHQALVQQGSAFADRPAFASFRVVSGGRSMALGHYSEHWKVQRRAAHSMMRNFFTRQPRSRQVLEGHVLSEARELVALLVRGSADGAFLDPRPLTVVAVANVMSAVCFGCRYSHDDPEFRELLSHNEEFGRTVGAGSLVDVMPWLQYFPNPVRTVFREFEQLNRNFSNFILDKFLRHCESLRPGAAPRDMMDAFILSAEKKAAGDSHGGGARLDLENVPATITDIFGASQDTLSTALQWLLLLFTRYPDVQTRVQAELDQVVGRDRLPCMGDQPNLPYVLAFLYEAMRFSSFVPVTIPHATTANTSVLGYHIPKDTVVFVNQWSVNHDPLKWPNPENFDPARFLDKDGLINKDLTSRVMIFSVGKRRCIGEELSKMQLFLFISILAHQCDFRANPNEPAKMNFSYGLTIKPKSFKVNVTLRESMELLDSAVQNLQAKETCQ

HEK293 T-Rex cell line = experiment: Cellular viability (resazurin to resorufin, 72 h); type: cell-based, human; details: HEK293 T-Rex, after 72 hrs
Method: (§1) The cells were >70% viable at 72 h with 10 μM compound, as quantified by metabolically active cells determined by the conversion of resazurin to resorufin (Supplementary Figs. 18–20).
(§2) The parental HEK T-Rex cell line was maintained as above, in the absence of Zeocin. Compounds were serially diluted in media, and the cells were dosed from 0–30 μM compound, and then incubated at 37 °C (n = 3). […] The cells were incubated with the compound in the dark for 30 min prior to light exposure, using the same parameters as in the enzyme activity assay, and then treated as above.

[1] = Cellular viability (resazurin to resorufin, 72 h); type: cell-based, human; details: human, parental HEK293 T-Rex cells, HEK293 T-Rex, after 72 hrs; for viability at 72 h, 1.11 μM: Log Conc 0.045757; for viability at 72 h, 30 μM: Log Conc 1.47712; for viability at 72 h, 0.37 μM: Log Conc -0.43136; for viability at 72 h, 0.123 μM: Log Conc -0.90849; for viability at 72 h, 0.0412 μM: Log Conc -1.38561; for viability at 72 h, 0.0137 μM: Log Conc -1.86273; for viability at 72 h, 3.33 μM: Log Conc 0.522879
Method: as §1, §2

CYP19A1 = target: T2, CYP19A1 (Homo sapiens, UniProt P11511); experiment: In cell activity assay for CYP19A1 (dibenzylfluorescein conversion, HEK293 T-Rex cells); type: cell-based; details: for % Enzyme Activity: CYP19A1, dark; for SI (1B1:19A1): ratio of IC50 CYP19A1 to CYP1B1, for complexes 4–6 IC50 (light)
T2 sequence (P11511 1-503): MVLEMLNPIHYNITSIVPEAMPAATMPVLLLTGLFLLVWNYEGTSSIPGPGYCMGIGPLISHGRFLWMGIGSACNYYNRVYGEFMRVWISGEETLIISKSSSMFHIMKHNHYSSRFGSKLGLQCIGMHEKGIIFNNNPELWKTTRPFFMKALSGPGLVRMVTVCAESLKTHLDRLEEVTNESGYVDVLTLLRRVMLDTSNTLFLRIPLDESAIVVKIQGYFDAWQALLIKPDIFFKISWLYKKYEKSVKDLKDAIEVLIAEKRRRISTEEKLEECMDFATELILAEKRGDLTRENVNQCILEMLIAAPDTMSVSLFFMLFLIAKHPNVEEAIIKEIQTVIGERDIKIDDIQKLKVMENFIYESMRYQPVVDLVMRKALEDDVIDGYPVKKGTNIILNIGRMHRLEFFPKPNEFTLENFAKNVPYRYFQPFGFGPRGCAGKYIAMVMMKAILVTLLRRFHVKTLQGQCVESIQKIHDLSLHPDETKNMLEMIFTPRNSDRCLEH
Method: Thus, the activity against CYP19A1 was evaluated using a recently developed in-cell fluorometric assay.
REE or DBF was added as described above.

[2] = Kinetic solubility by UV/Vis; type: physicochemical; details: Opti-MEM with 2% fetal bovine serum, room temperature, 3 hours; for Kinetic solubility C1: replicate 1; for Kinetic solubility C2: replicate 2; for Kinetic solubility C3: replicate 3
Method: Kinetic solubility was measured by UV/Vis. In this experiment, 14 μL of 10 mM DMSO stocks of complexes 4–6 were diluted in 700 μL of Opti-MEM™ with 2% fet al bovine serum and kept at room temperature for 3 hours. The solutions were then filtered using syringe-driven filters (FV12S) and concentrations were measured by UV/vis absorbance in a 96-well plate in triplicate. […]
4. Simulate in the NPT ensemble using a Berendsen thermostat and a Berendsen barostat with: […]
5. Simulate in the NPT ensemble using a Berendsen thermostat and a Berendsen barostat with: […]
6. Simulate in the NPT ensemble using a Berendsen thermostat and a Berendsen barostat with: […]

[3] = type: physicochemical
From the text: Liver Weight Blood Flow Protein
(g/kg Body Weight) (mL/min/kg) (mg/g liver
Supplementary Table 7. Quantum yields of photosubstitution in different solvents.
Compound Φ(PS) 5% DMSO in H2Oa Φ(PS) Opti-MEMa Φ(PS) CH3OH […]
a Quantum yield for photosubstitution, ΦPS, in 5% DMSO in H2O and Opti-MEM, calculated by optical approach
(Fig. S8-10). b ΦPS in 5% DMSO in H2O, determined by HPLC approach. HPLC was used due to overlap in absorbance profiles for 6 and its photochemical product (Fig. S7).
Supplementary Table 8. Lipinski’s rule of five. […]
a log P was calculated by taking the logarithm of the ratio of the MLCT absorbance of each complex (4-6) in octanol to the corresponding absorbance in H2O.
1. Lameijer, L. N. et al. A Red-Light-Activated Ruthenium-Caged NAMPT Inhibitor Remains Phototoxic in Hypoxic Cancer Cells. Angew. Chem. Int. Ed. Engl. 56, 11549-11553,

[4] = Dark, conversion of dibenzylfluorescein (DBF), read-out: IC50 CYP19A1 Dark
[5] = Light: 660 nm, 58.7 J/cm^2, DBF, read-out: IC50 CYP19A1 Light

Row | Structure (SMILES) | logSI F134L (CYP1B1 F134L) | % Viable (HEK293 T-Rex cell line; Log Conc 0.045757) | % Viable (HEK293 T-Rex cell line; Log Conc 0.522879) | % Viable (HEK293 T-Rex cell line; Log Conc 1) | % Viable (HEK293 T-Rex cell line; Log Conc 1.47712) | % Viable (HEK293 T-Rex cell line; Log Conc -0.43136) | % Viable (HEK293 T-Rex cell line; Log Conc -0.90849) | % Viable (HEK293 T-Rex cell line; Log Conc -1.38561) | % Viable (HEK293 T-Rex cell line; Log Conc -1.86273) | viability at 72 h, 1.11 μM [1] | viability at 72 h, 30 μM [1] | viability at 72 h, 0.37 μM [1] | viability at 72 h, 0.123 μM [1] | viability at 72 h, 0.0412 μM [1] | viability at 72 h, 0.0137 μM [1] | IC50 (CYP19A1; [4]) | Kinetic solubility C average [2] | Kinetic solubility C1 [2] | Kinetic solubility C2 [2] | Kinetic solubility C3 [2] | also measured
1 | COc1ccc(C=Cc2ccncc2)c(OC)c1 [Compound 3] | 1.7 | 97.2552% and 97.1817% | 116.518% and 106.568% and 128.158% | 141.882% and 148.217% and 166.23% | 142.875% and 157.603% | 103.982% and 85.443% | 97.2307% and 93.9713% | 97.0469% and 84.1196% | 98.309% and 101.936% | 96.6% | 140% | 92.3% | 93.3% | 90.3% | 103% | 14.4 µM |  |  |  |  | 
2 | COc1ccc(/C=C/c2cc[n+]([Ru-4]345([n+]6ccccc6-c6cccc([n+]63)-c3cccc[n+]34)[n+]3c(cc(C(=O)[O-])c4ccccc43)-c3cc(C(=O)[O-])c4ccccc4[n+]35)cc2)c(OC)c1 [Compound 6] |  |  |  |  |  |  |  |  |  |  |  |  |  |  |  | > 30 µM | 36.9 µM | 33.9 µM | 38.5 µM | 38.2 µM | % Enzyme Activity (CYP19A1; Log Conc 0.045757): 105.406% and 101.538% and 104.022%; % Enzyme Activity (CYP19A1; Log Conc 0.522879): 104.302% and 98.6869% and 100.038%; % Enzyme Activity (CYP19A1; Log Conc 1): 98.3957% and 97.4287% and 99.555%; % Enzyme Activity (CYP19A1; Log Conc 1.47712): 84.792% and 87.3743% and 76.9903%; % Enzyme Activity (CYP19A1; Log Conc -0.43136): 108.571% and 102.071% and 105.115%; % Enzyme Activity (CYP19A1; Log Conc -0.90849): 106.835% and 107.302% and 104.318%; % Enzyme Activity (CYP19A1; Log Conc -1.38561): 104.082% and 105.269% and 104.335%; % Enzyme Activity (CYP19A1; Log Conc -1.86273): 107.692% and 92.0059% and 100.302%; IC50 (CYP19A1; [5]): 18.8 µM; SI (1B1:19A1) (CYP19A1): 62,800; log P [3]: 0.2
3 | COc1cc(/C=C/c2ccc(OC)cc2OC)cc(OC)c1 [Compound 1, reference compound] | 1 | 81.8963% and 90.1938% | 71.5944% and 78.1539% | 79.5836% and 68.5529% | 62.2316% and 63.1567% | 95.7862% and 89.6612% | 94.8612% and 92.8008% | 93.2073% and 97.8887% | 106.593% and 96.3469% | 91.2% | 68.4% | 98.9% | 98.4% | 97.1% | 99.3% | > 30 µM |  |  |  |  | viability at 72 h, 3.33 μM [1]: 76.6%
4 | COc1ccc(/C=C/c2cc[n+]([Ru-4]345([n+]6ccccc6-c6cccc([n+]63)-c3cccc[n+]34)[n+]3c(cc(C(=O)[O-])c4ccccc43)-c3cc(C(=O)[O-])c4ccccc4[n+]35)cn2)c(OC)c1 [Compound 5] |  |  |  |  |  |  |  |  |  |  |  |  |  |  |  | 28.3 µM | 112.2 µM | 113.3 µM | 110.0 µM | 113.0 µM | IC50 (CYP19A1; [5]): 11.2 µM; impact on CYP19A1 (CYP19A1; at concentrations ≥10 μM (so in the source)): no impact; SI (1B1:19A1) (CYP19A1): 660; log P [3]: -0.5
5 | COc1ccc(/C=C/c2ccncn2)c(OC)c1 [Compound 2] | 0.5 | 94.5248% and 84.1248% | 84.1669% and 88.3577% | 69.8564% and 78.2941% | 51.1449% and 56.2608% | 92.2822% and 92.2261% | 98.0989% and 92.2261% | 94.0623% and 98.2391% | 98.7016% and 97.4401% | 97.3% | 51.9% | 85.2% | 89.2% | 92% | 93.4% | 10.7 µM |  |  |  |  | IC50 (CYP1B1 F134L): 0.24 µM; Ratio IC50 (mutant)/ IC50 (WT), F134L (CYP1B1 F134L): 3; viability at 72 h, 3.33 μM [1]: 79.8%; viability at 72 h, 10 μM ([1]; Log Conc 1): 64.5%

— publication PMC9233675, “Ru(II) photocages enable precise control over enzyme activity with red light” (Nature Communications, 2022)
